The values that follow come from PubChem BioAssay (NCI).

Test systems include U251 CNS; EKVX NSCLC; HCT-15 colon; OVCAR-8 ovarian; HCT-116 colon; LOX IMVI melanoma; SW-620 colon; SK-MEL-2 melanoma; HCC-2998 colon; IGROV1 ovarian.
Common to all, as to assay: NCI anticancer screen, dose series, 48 h

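Exposure lasted 48 hours, with cells grown in 96-well plates and compounds tested at five concentrations. GI50 is the concentration that inhibits growth by half. TGI marks complete inhibition of growth.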

In the case of `CC(C)(N)CO[C@H]1C[C@H]2CC[C@@]1(C)C2(C)C`, the TGI was 36.4 µM in the assay with U251 CNS; > 100 µM in the assay with EKVX NSCLC; 47 µM in the assay with HCT-15 colon; 53.1 µM with OVCAR-8 ovarian; 29.8 µM in the assay with HCT-116 colon; 35.1 µM in the assay with LOX IMVI melanoma. For the same compound, the TGI in the assay on SW-620 colon was 54.4 µM; in the assay on SK-MEL-2 melanoma, 35.3 µM; with HCC-2998 colon, 5.23 µM; in the assay with IGROV1 ovarian, > 100 µM.

With `COc1ccc(NS(=O)c2ccc(-c3ccccc3)cc2)cc1` (stereo unspecified), the TGI in the assay on U251 CNS, in the assay on EKVX NSCLC, in the assay with HCT-15 colon, in the assay with OVCAR-8 ovarian, in the assay on HCT-116 colon and in the assay with LOX IMVI melanoma was > 100 µM throughout. Also, the TGI with SW-620 colon, in the assay with HCC-2998 colon and in the assay on IGROV1 ovarian was > 100 µM in each case.

Turning to `NCC[Se][Se]CCN`, the TGI with U251 CNS is 24.1 µM; in the assay with EKVX NSCLC, 18.1 µM; in the assay with HCT-15 colon, 22.1 µM; in the assay with OVCAR-8 ovarian it was 38.1 µM; in the assay with HCT-116 colon it was 15.3 µM; with SW-620 colon, 48.9 µM. Further, the figures for the TGI with SK-MEL-2 melanoma, in the assay with HCC-2998 colon and in the assay with IGROV1 ovarian were 23.2 µM, 24.9 µM and 25.7 µM, respectively.

For `O=S1(=O)NNC(=NCc2ccc(Cl)c(Cl)c2)c2ccccc21`, the TGI in the assay with U251 CNS, in the assay on EKVX NSCLC, with HCT-15 colon, with OVCAR-8 ovarian, in the assay with HCT-116 colon and with LOX IMVI melanoma was > 100 µM throughout. The TGI with SW-620 colon, with SK-MEL-2 melanoma, with HCC-2998 colon and with IGROV1 ovarian was > 100 µM throughout.

Take `COc1cc2cc[n+](C)c(Cc3ccccc3)c2cc1OC`: the TGI in the assay with U251 CNS, in the assay with EKVX NSCLC, in the assay with HCT-15 colon, with OVCAR-8 ovarian, in the assay with HCT-116 colon and in the assay with LOX IMVI melanoma was > 100 µM each time. For the same compound, the TGI in the assay on SW-620 colon, in the assay with SK-MEL-2 melanoma and in the assay on IGROV1 ovarian was > 100 µM throughout.

Take `CNC(C)Cc1ccccc1O` (stereo unspecified): the TGI with U251 CNS, in the assay on EKVX NSCLC, with HCT-15 colon, in the assay with OVCAR-8 ovarian, in the assay on HCT-116 colon and with LOX IMVI melanoma was > 100 µM in each case. The TGI in the assay with SW-620 colon, in the assay with SK-MEL-2 melanoma, in the assay with HCC-2998 colon and with IGROV1 ovarian was > 100 µM throughout.

Regarding `Nc1ccc2c(c1)C1=NNC(=O)CC1C2` (stereo unspecified), the TGI with U251 CNS, in the assay on EKVX NSCLC, in the assay with HCT-15 colon, in the assay with OVCAR-8 ovarian, in the assay on HCT-116 colon and with LOX IMVI melanoma was > 100 µM throughout. In addition, the TGI in the assay on SW-620 colon, in the assay with SK-MEL-2 melanoma, in the assay on HCC-2998 colon and with IGROV1 ovarian was > 100 µM in each case.

As for `CC1SC(c2ccccc2)N(Nc2c3ccccc3nc3ccccc23)C1=O` (stereo unspecified), the TGI in the assay with U251 CNS, with EKVX NSCLC, with HCT-15 colon, in the assay on OVCAR-8 ovarian, with HCT-116 colon and in the assay on LOX IMVI melanoma was > 100 µM each time. The TGI in the assay with SW-620 colon, in the assay on SK-MEL-2 melanoma, in the assay on HCC-2998 colon and in the assay with IGROV1 ovarian was > 100 µM in each case.

On to `O=C(N/C(=C\c1ccccc1[N+](=O)[O-])c1nc2ccccc2[nH]1)c1ccccc1`, for which the TGI in the assay on U251 CNS, in the assay with HCT-15 colon, in the assay with OVCAR-8 ovarian, with SW-620 colon, with SK-MEL-2 melanoma and in the assay on HCC-2998 colon was > 100 µM throughout. In addition, the TGI with IGROV1 ovarian is > 100 µM.

For the compound `CCC(CS(=O)(=O)O)[N+](=O)[O-]` (stereo unspecified), the TGI in the assay with U251 CNS, in the assay with EKVX NSCLC, with HCT-15 colon, in the assay with OVCAR-8 ovarian, with HCT-116 colon and with LOX IMVI melanoma was > 100 µM each time. Further, the TGI in the assay on SW-620 colon, with SK-MEL-2 melanoma, with HCC-2998 colon and in the assay with IGROV1 ovarian was > 100 µM throughout.

As to `CN1CCN(c2ccc(-c3ccc4ncc(C#N)c(Nc5ccc(F)c(Cl)c5)c4c3)cc2)CC1`, the GI50 is 2.3 µM in the assay with U251 CNS; 0.838 µM with EKVX NSCLC; 1.05 µM in the assay with HCT-15 colon; 2.74 µM with OVCAR-8 ovarian; 2.78 µM with LOX IMVI melanoma; 2.81 µM in the assay with SW-620 colon. For the same compound, the GI50 in the assay with SK-MEL-2 melanoma is 2.3 µM; with HCC-2998 colon it was 3.26 µM; in the assay with IGROV1 ovarian it was 0.321 µM. Besides, the TGI with U251 CNS is 7.47 µM; in the assay with EKVX NSCLC, 41.2 µM; in the assay with HCT-15 colon, 3.62 µM; with OVCAR-8 ovarian it was 14.5 µM; in the assay with LOX IMVI melanoma, 11.5 µM; in the assay on SW-620 colon it was 14.5 µM. Also, the TGI with SK-MEL-2 melanoma came to 6.72 µM; with HCC-2998 colon, 15.8 µM; with IGROV1 ovarian, 10.5 µM.

Take `CN(C)CCNc1ccc2ncnc3c2c1C(=O)c1ccccc1-3`: the TGI in the assay on U251 CNS stood at 17.9 µM; with EKVX NSCLC it was 5.67 µM; in the assay with HCT-15 colon, 13.5 µM; in the assay on OVCAR-8 ovarian, 10.5 µM; in the assay on HCT-116 colon, 1.71 µM; with LOX IMVI melanoma, 10.5 µM. In addition, the TGI worked out at 3.81 µM in the assay on SW-620 colon, 10.8 µM in the assay on SK-MEL-2 melanoma, 2.92 µM in the assay on HCC-2998 colon and 0.574 µM in the assay with IGROV1 ovarian.

Turning to `O=[N+]([O-])c1ccc(N=Nc2c(O)ccc3cc(S(=O)(=O)O)ccc23)cc1`, the TGI in the assay with U251 CNS, in the assay with EKVX NSCLC, in the assay with HCT-15 colon, with OVCAR-8 ovarian, in the assay with HCT-116 colon and with LOX IMVI melanoma was > 100 µM each time. Also, the TGI in the assay with SW-620 colon, in the assay with SK-MEL-2 melanoma and in the assay with IGROV1 ovarian was > 100 µM throughout.

As to `C=C(C)[C@@H]1CC[C@]2(C)CC[C@]3(C)[C@H](CC[C@@H]4[C@@]5(C)CC[C@H](OC(=O)c6ccccc6)C(C)(C)[C@@H]5CC[C@]43C)[C@@H]12`, the TGI in the assay with U251 CNS, with EKVX NSCLC, in the assay with HCT-15 colon, with OVCAR-8 ovarian, with HCT-116 colon and with LOX IMVI melanoma was > 100 µM in each case. In addition, the TGI in the assay with SW-620 colon, in the assay on SK-MEL-2 melanoma, in the assay with HCC-2998 colon and in the assay with IGROV1 ovarian was > 100 µM throughout.

As to `CO[C@H]1[C@@H](O)[C@@H](C)O[C@@H](O[C@H]2CC[C@@]3(C)[C@H](CC[C@@H]4[C@@H]3CC[C@]3(C)[C@@H](C5=CC(=O)OC5)CC[C@]43O)C2)[C@@H]1O`, the TGI in the assay on U251 CNS was determined as 0.0415 µM; in the assay on EKVX NSCLC, 0.0106 µM; in the assay on HCT-15 colon it was 0.0419 µM; in the assay with OVCAR-8 ovarian, 0.0444 µM; in the assay on HCT-116 colon it was 0.0275 µM; in the assay on LOX IMVI melanoma it was 0.0455 µM. Further, the TGI came to 2.51 µM with SW-620 colon, 0.0538 µM in the assay with SK-MEL-2 melanoma, 0.173 µM in the assay with HCC-2998 colon and 0.0848 µM in the assay with IGROV1 ovarian.

Consider `O=c1[nH][nH]c(=O)[nH]1`, for which the TGI with U251 CNS, in the assay on EKVX NSCLC, with HCT-15 colon, with HCT-116 colon, in the assay with LOX IMVI melanoma and in the assay with SW-620 colon was > 100 µM throughout. For the same compound, the TGI in the assay with SK-MEL-2 melanoma, with HCC-2998 colon and with IGROV1 ovarian was > 100 µM each time.

As to `Cc1nc2ccccc2c(=O)n1-c1n[nH]c2ccccc12`, the TGI in the assay on U251 CNS, with EKVX NSCLC, in the assay with HCT-15 colon, with OVCAR-8 ovarian, in the assay on HCT-116 colon and with LOX IMVI melanoma was > 100 µM in each case. For the same compound, the TGI in the assay on SW-620 colon, with SK-MEL-2 melanoma, with HCC-2998 colon and with IGROV1 ovarian was > 100 µM each time.

Regarding `CCn1nc(C)c2c1C(=O)NC(C)C(=O)N2` (stereo unspecified), the TGI is > 100 µM in the assay on U251 CNS; > 100 µM in the assay with EKVX NSCLC; 28.3 µM with HCT-15 colon; > 100 µM in the assay with OVCAR-8 ovarian; > 100 µM in the assay on HCT-116 colon; > 100 µM in the assay on SW-620 colon. The TGI in the assay with IGROV1 ovarian was > 100 µM.

Turning to `CC(CN(C)C)C(=O)c1ccccc1C(=O)O` (stereo unspecified), the TGI was 38.2 µM with U251 CNS; > 100 µM with EKVX NSCLC; > 100 µM with HCT-15 colon; 98.8 µM with OVCAR-8 ovarian; > 100 µM in the assay with HCT-116 colon; > 100 µM with LOX IMVI melanoma. Also, the TGI in the assay with SW-620 colon was > 100 µM; in the assay with SK-MEL-2 melanoma, 46.9 µM; with IGROV1 ovarian it was > 100 µM.
